SMILES strings stand for the structures.

One data set has as its target T1, human thrombin (Homo sapiens, UniProt P00734).
T1 construct: human thrombin (Sigma Chemical Company); purchased Sigma Chemical Company
The data set is described as follows: Measurement of inhibitory activity for thrombin (S-2238 chromogenic substrate). The data set is classed as biochemical. To be noted: S-2238, 10 minutes at 37° C., pH 8.4. Here is the method:
2.5 μL of a dimethylsulfoxide solution of a test compound, 187.5 μL of 100 mM tris-200 mM NaCl buffer (pH 8.4) and 50 μL of 1 mM S-2238 (Daiichi Pure Chemicals) aqueous solution were poured into 96 well microplate. Then 10 μL of 2.0 U/mL human thrombin (Sigma Chemical Company) in gelatin-glycine buffer was added and the mixture was incubated for 10 minutes at 37° C. The reaction was terminated with the addition of 50 μL of 60% acetic acid and absorbance (405 nm) was measured by a microplate reader (SPECTRAmax 250, Molecular Devices).
The group with 2.5 μL of the dimethylsulfoxide solution instead of the test compound solution was defined as the control, and the group with 10 μL of the gelatin-glycine buffer solution instead of human thrombin was defined as the blank. The concentration of a test compound that inhibited the absorbance of control by 50% (IC50) was obtained, and this value was used as the index of inhibitory activity for thrombin.

The test system of another data set is Male ICR mice. Kind of data set: Acute toxicity test. The data set is classed as in vivo. The settings on record: 50.0 mg/10.0 mL/kg into tail vein, survival judged for 24 hours, groups of 5. Here is the method: Male ICR mice aged 7 weeks (SLC) were divided into several groups consisted of 5 mice. A solution containing a test compound was prepared at the concentration that became the administration volume of the test compound to be 50.0 mg/10.0 mL/kg. The solution was administered into tail vein at an infusion rate of 1 mL/minute. Observations were performed at constant interval, and survival rate was judged for 24 hours. Results were shown as Table 5, and no death case was observed.

For another data set, the system named is normal human plasma. Kind of data set: Measurement of anticoagulation effects (prolongation of plasma prothrombin time). Here is the method: Two μL of a dimethylsulfoxide solution of a test compound was put in the process tube and then incubated at 37° C. One minute after addition of 48 μL of normal human plasma (George King Bio-Medical Inc), 100 μL of plasma prothrombin time reagent (Boehringer Mannheim) prewarmed at 37° C. was added into the mixture. Prothrombin time was measured with a coagulometer (ST4, Boehringer Mannheim).
The group without any test compound was defined as the control. The concentration of test compound that prolonged the clotting time of the control by 2 times (CT2) was obtained and, this value was used as the index of anticoagulation activity.

Data set [1] has as its target T2, human activated blood coagulation factor X (Homo sapiens, UniProt P00742).
T2 construct: purchased Calbiochem
The data set is described as follows: Measurement of inhibitory activity for activated blood coagulation factor X (S-2222 chromogenic substrate). Type of data set: biochemical. The settings on record: S-2222, 10 minutes at 37° C., pH 8.4. Here is the method:
2.5 μL of a dimethylsulfoxide solution of a test compound, 187.5 μL of 100 mM tris-200 mM NaCl buffer (pH 8.4) and 50 μL of 1 mM S-2222 (Daiichi Pure Chemicals) aqueous solution were poured into 96 well microplate. Then 10 μL of 0.6 U/mL human activated blood coagulation factor X (Calbiochem) in gelatin-glycine buffer was added and the mixture was incubated for 10 minutes at 37° C. The reaction was terminated with the addition of 50 μL of 60% acetic acid and absorbance (405 nm) was measured by a microplate reader (SPECTRAmax 250, Molecular Devices).
The group with 2.5 μL of the dimethylsulfoxide solution instead of the test compound solution was defined as the control, and the group with 10 μL of the gelatin-glycine buffer solution instead of human activated blood coagulation factor X was defined as the blank.
Target sequence in this assay (P00742 235-488 limits assumed): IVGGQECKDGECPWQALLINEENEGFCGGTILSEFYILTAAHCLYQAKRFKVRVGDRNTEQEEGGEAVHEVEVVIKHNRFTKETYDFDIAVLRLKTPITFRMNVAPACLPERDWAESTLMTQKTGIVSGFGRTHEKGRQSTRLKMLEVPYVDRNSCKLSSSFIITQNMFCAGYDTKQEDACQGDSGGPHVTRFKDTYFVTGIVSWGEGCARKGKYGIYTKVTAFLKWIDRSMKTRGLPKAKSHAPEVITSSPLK
Target sequence in this assay (P00742 41-179 partner limits assumed): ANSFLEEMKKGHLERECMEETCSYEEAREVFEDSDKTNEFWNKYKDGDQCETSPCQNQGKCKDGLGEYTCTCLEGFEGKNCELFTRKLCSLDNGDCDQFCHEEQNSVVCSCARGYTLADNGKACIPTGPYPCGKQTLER

For data set [2], the target named is T2, human activated blood coagulation factor X. Kind of data set: Oral administration test in rats: anti-activated blood coagulation factor X activity in plasma. Type of data set: in vivo, rat. To be noted: male Wistar rats, 30 minutes after oral administration, 30 mg/kg; plasma tested against human factor Xa. Here is the method: (§1) Male Wistar rats aged 6–9 weeks (SLC) fasted overnight were used. A test compound was dissolved or suspended in 0.5% methylcellulose solution at the concentration of 6.0 mg/mL. Then 5.0 mL/kg of that was orally administrated into the rats. Before and at proper time points after administration of the test compound, citrated (1:10 dilution, 3.13% sodium citrate) blood was collected from the jugular vein. Plasma samples were obtained by centrifugation.
2.5 μL of plasma sample, 200 μL of 100 mM tris-200 mM NaCl buffer (pH 8.4) and 10 μL of 0.06 U/mL human activated blood coagulation factor X (Calbiochem) in gelatin-glycine buffer were poured into 96 well microplate. Then 50 μL of 1 mM S-2222 (Daiichi Pure Chemicals) aqueous solution was added and the mixture was incubated for 10 minutes at room temperature. The reaction was terminated with the addition of 50 μL of 60% acetic acid and absorbance (405 nm) was measured by a microplate reader (SPECTRAmax 250, Molecular Devices).
The group with 2.5 μL of the control plasma instead of the plasma sample was defined as the control, and the group with 10 μL of gelatin-glycine buffer solution instead of human activated blood coagulation factor X was defined as the blank. The inhibitory % of plasma sample was calculated from absorbance of the control as 100% and this value was used as the index of anti-activated blood coagulation factor X activity in plasma.
(§2) 4) Results of anti-activated blood coagulation factor X activity in plasma and PT ratio at 30 minutes after oral administration of each test compound at a dose of 30 mg/kg were shown as Table 4.
Target sequence in this assay (P00742 235-488 limits assumed): as the sequence (P00742 235-488 limits assumed) above
Target sequence in this assay (P00742 41-179 limits assumed): as the sequence (P00742 41-179 partner limits assumed) above

In the next data set the test system is plasma prothrombin time. Kind of data set: Oral administration test in rats: prothrombin time (PT) of plasma. The settings on record: male Wistar rats, 30 minutes after oral administration, 30 mg/kg; PT after administration to that before. The data set is classed as in vivo, rat. Here is the method:
as §1
Fifty μL of plasma was put in the process tube and then incubated at 37° C. One minute later, 100 μL of plasma PT reagent (Boehringer Mannheim) prewarmed at 37° C. was added into the mixture. PT was measured with a coagulometer (ST4, Boehringer Mannheim).
The ratio of PT at each time point after administration of the test compound to that of before administration was used as the index of anticoagulation activity.
as §2

In general, IC50 refers to the midpoint of a concentration-inhibition curve. As for `CC(C)c1ccc(CCNS(=O)(=O)c2cc(C(=N)N)ccc2O)c(OCC(=O)O)c1` [Compound 42, [2-[2-(5-Carbamimidoyl-2-hydroxybenzenesulfonylamino)-ethyl]-5-isopropylphenoxy]acetic acid], the IC50 is greater than 100 µM against human thrombin and 0.1 µM in data set [1]. The Death case with Male ICR mice is given as 0/5. In addition, the “Anticoagulation activity (μM): concentration that prolonged the clotting time of the control by 2 times (CT2)” value in the data set on normal human plasma is 2.4 µM.

With `CCOC(=O)COc1cc(-c2ccccc2S(C)(=O)=O)ccc1CCNS(=O)(=O)c1cc(C(=N)NO)ccc1O` [Compound 43, Ethyl[4-[2-[2-hydroxy-5-(N-hydroxycarbamimidoyl)-benzenesulfonylamino]ethyl]-2′-mthanesulfonylbiphenyl-3-yloxy]acetate], the “Anti-activated blood coagulation factor X activity in plasma (%)” value in data set [2] was 32.0%. Also, the PT ratio in the data set on plasma prothrombin time was 1.31.

As for `CS(=O)(=O)c1ccccc1-c1ccc(CCNS(=O)(=O)c2cc(C(=N)N)ccc2O)c(OCC(=O)O)c1.Cl` [Compound 33, [4-[2-(5-Carbamimidoyl-2-hydroxybenzenesulfonylamino)-ethyl]-2′-methanesulfonoylbiphenyl-3-yloxy]acetic acid hydrochloride], the IC50 on human thrombin is greater than 100 µM. The “Anticoagulation activity (μM): concentration that prolonged the clotting time of the control by 2 times (CT2)” value in the data set on normal human plasma was determined as 0.52 µM.

Consider `Cc1nc(CN(CCc2ccc(C(C)C)cc2OCC(=O)O)S(=O)(=O)c2cc(C(=N)N)ccc2O)cs1` [Compound 53, [2-[2-[(5-Carbamimidoyl-2-hydroxybenzenesulfonyl)-(2-methyl-1,3-thiazol-4-ylmethyl)amino]ethyl]-5-isopropylphenoxy]acetic acid], for which the IC50 at human thrombin was greater than 100 µM; in data set [1] it was 0.051 µM.

As for `CC(C)c1ccc(CCNS(=O)(=O)c2cc(C(=N)N)ccc2O)c(S(N)(=O)=O)c1` [Compound 52, 5-Carbamimidoyl-2-hydroxy-N-[2-(4-isopropyl-2-sulfamoylphenyl)ethyl]benzenesulfonamide], the figures for the IC50 (on human thrombin; in data set [1]) were greater than 100 µM and 0.016 µM, respectively.

On to `CS(=O)(=O)c1ccccc1-c1ccc(CCNS(=O)(=O)c2cc(C(=N)NO)ccc2O)c(OCC(=O)OC2CCCCC2)c1` [Compound 49, Cyclohexyl[4-[2-[2-hydroxy-5-(N-hydroxycarbamimidoyl)-benzenesulfonylamino]ethyl]-2′-methanesulfonylbiphenyl-3-yloxy]acetate], for which the “Anti-activated blood coagulation factor X activity in plasma (%)” value in data set [2] came to 51.4%. In addition, the PT ratio in the data set with plasma prothrombin time is reported as 1.43.

In the case of `CCCCOC(=O)COc1cc(-c2ccccc2S(C)(=O)=O)ccc1CCNS(=O)(=O)c1cc(C(=N)NO)ccc1O.Cl` [Compound 48, n-Butyl[4-[2-[2-Hydroxy-5-(N-hydroxycarbamimidoyl)-benzenesulfonylamino]ethyl]-2′-methanesulfonylbiphenyl-3-yloxy]acetate hydrochloride], the “Anti-activated blood coagulation factor X activity in plasma (%)” value in data set [2] is given as 58.2%. Besides, the PT ratio in the data set with plasma prothrombin time turned out to be 1.50.

The values above are taken from patent US7208524B2, “5-amidino-2-hydroxybenzenesulfonamide derivatives, pharmaceutical compositions containing the same and intermediates for their preparation” (Kissei Pharmaceutical Co., Ltd., priority 2000, dated 2007).
